# Values quoted from earlier work as cited in PMC7904743, “WIDOCK: a reactive docking protocol for virtual screening of covalent inhibitors” (Journal of Computer-Aided Molecular Design, 2021).
# Where two headings read alike, the source gives them in different places.
# Tests used:
# OTUB2 = conditions: experimental actives if % labeling higher than 50%; cited from earlier work
# NUDT7 = conditions: protein labeling at 200 μM; experimental actives if % labeling higher than 50%; cited from earlier work
# [1] = thiol reactivity, cited from earlier work
# [2] = natural log of average rate constant k
# [3] = natural logarithm of average rate constant
Structure (SMILES),OTUB2 % labeling (OTUB2) [%],NUDT7 % labeling (NUDT7) [%],"ln(avg k) [1, 2]","ln(avg k) [1, 3]"
"O=C(CCl)NC(=O)OCc1ccccc1 [PCM-0102153, O=C(CCl)NC(=O)OCc1ccccc1]",79,0,-16.245,-16.245
"O=C(CCl)Nc1cccc(I)c1 [PCM-0102154, O=C(CCl)Nc1cccc(I)c1]",49,24,-15.790,-15.790
"O=C(CCl)N(CC(F)(F)F)c1ccc(Cl)cc1 [PCM-0102155, O=C(CCl)N(CC(F)(F)F)c1ccc(Cl)cc1]",0,79,-15.883,-15.883
"COc1ccc(NC(=O)CCl)cc1 [PCM-0102156, COc1ccc(NC(=O)CCl)cc1]",52,0,-15.521,-15.521
"CC(NC(=O)CCl)C1CC1 (centres unmarked) [PCM-0102157, CC(NC(=O)CCl)C1CC1]",10,0,-17.112,-17.112
"O=C(CCl)Nc1ccccc1F [PCM-0102158, O=C(CCl)Nc1ccccc1F]",51,0,-16.146,-16.146
"O=C(CCl)N1c2ccccc2NC(=O)C12CCCC2 [PCM-0102159, O=C(CCl)N1c2ccccc2NC(=O)C12CCCC2]",0,18,-14.824,-14.824
"O=C(CCl)N1CCc2ccccc21 [PCM-0102160, O=C(CCl)N1CCc2ccccc21]",0,0,-15.869,-15.869
"NS(=O)(=O)c1cccc(NC(=O)CCl)c1 [PCM-0102162, NS(=O)(=O)c1cccc(NC(=O)CCl)c1]",58,0,-15.171,-15.171
"O=C(CCl)Nc1ccc(O)cc1 [PCM-0102163, O=C(CCl)Nc1ccc(O)cc1]",16,0,-15.989,-15.989
"NC(=O)c1c(NC(=O)CCl)sc2c1CCC2 [PCM-0102164, NC(=O)c1c(NC(=O)CCl)sc2c1CCC2]",0,28,-15.581,-15.581
"Cc1cc(S(N)(=O)=O)cc(NC(=O)CCl)c1C [PCM-0102165, Cc1cc(S(N)(=O)=O)cc(NC(=O)CCl)c1C]",12,9,-16.164,-16.164
"CCc1nnc(NC(=O)CCl)s1 [PCM-0102166, CCc1nnc(NC(=O)CCl)s1]",0,21,-16.086,-16.086
"Cc1ccc(-c2csc(NC(=O)CCl)n2)cc1 [PCM-0102168, Cc1ccc(-c2csc(NC(=O)CCl)n2)cc1]",0,40,-15.760,-15.760
"O=C(CCl)N1CCN(Cc2ccc(Br)s2)CC1 [PCM-0102169, O=C(CCl)N1CCN(Cc2ccc(Br)s2)CC1]",0,0,-15.949,-15.949
"O=C(CCl)Nc1ccccc1C(F)(F)F [PCM-0102170, O=C(CCl)Nc1ccccc1C(F)(F)F]",0,0,-16.769,-16.769
"Cc1ccc(NC(=O)NC(=O)CCl)c(C)c1 [PCM-0102171, Cc1ccc(NC(=O)NC(=O)CCl)c(C)c1]",10,20,-15.812,-15.812
"CC(=O)Nc1cccc(NC(=O)CCl)c1 [PCM-0102172, CC(=O)Nc1cccc(NC(=O)CCl)c1]",0,0,-15.748,-15.748

Structure (SMILES),OTUB2 % labeling (OTUB2) [%],NUDT7 % labeling (NUDT7) [%],"ln(avg k) [1, 2]","ln(avg k) [1, 3]"
"COc1ccccc1N1CCN(C(=O)CCl)CC1 [PCM-0102173, COc1ccccc1N1CCN(C(=O)CCl)CC1]",0,0,-15.826,-15.826
"O=C(CCl)NCc1cccc(Cl)c1 [PCM-0102174, O=C(CCl)NCc1cccc(Cl)c1]",25,0,-16.752,-16.752
"Cc1cc(NC(=O)CCl)ccc1N1CCCC1 [PCM-0102175, Cc1cc(NC(=O)CCl)ccc1N1CCCC1]",39,13,-15.490,-15.490
"Cc1ccc(NC(=O)CCl)cc1S(N)(=O)=O [PCM-0102177, Cc1ccc(NC(=O)CCl)cc1S(N)(=O)=O]",27,10,-15.256,-15.256
"CN(C(=O)CCl)C1CCS(=O)(=O)C1 (centres unmarked) [PCM-0102178, CN(C(=O)CCl)C1CCS(=O)(=O)C1]",0,0,-15.027,-15.027
"O=C(CCl)Nc1cccc(N2CCCC2=O)c1 [PCM-0102179, O=C(CCl)Nc1cccc(N2CCCC2=O)c1]",47,12,-15.495,-15.495
"CC(NC(=O)CCl)c1cccs1 (centres unmarked) [PCM-0102180, CC(NC(=O)CCl)c1cccs1]",55,16,-16.321,-16.321
"O=C(CCl)Nc1cccc(-c2nnc3n2CCCCC3)c1 [PCM-0102181, O=C(CCl)Nc1cccc(-c2nnc3n2CCCCC3)c1]",0,0,-15.929,-15.929
"Cc1c(C#N)c(NC(=O)CCl)n(C2CCCC2)c1C [PCM-0102183, Cc1c(C#N)c(NC(=O)CCl)n(C2CCCC2)c1C]",0,28,-15.991,-15.991
"Cc1cccc(N2CCN(C(=O)CCl)CC2)c1 [PCM-0102185, Cc1cccc(N2CCN(C(=O)CCl)CC2)c1]",0,5,-15.479,-15.479
"O=C(CCl)Nc1nnc(C2CC2)o1 [PCM-0102187, O=C(CCl)Nc1nnc(C2CC2)o1]",0,0,-17.207,-17.207
"CC(NC(=O)CCl)c1cccc(Cl)c1 (centres unmarked) [PCM-0102190, CC(NC(=O)CCl)c1cccc(Cl)c1]",37,42,-16.294,-16.294
"O=C(CCl)NCc1ccc(F)cc1 [PCM-0102192, O=C(CCl)NCc1ccc(F)cc1]",31,0,-16.677,-16.677
"O=C(CCl)N1CCN(S(=O)(=O)c2ccc3c(c2)CCC3)CC1 [PCM-0102193, O=C(CCl)N1CCN(S(=O)(=O)c2ccc3c(c2)CCC3)CC1]",0,0,-15.169,-15.169
"Cc1cc(NC(=O)CCl)on1 [PCM-0102197, Cc1cc(NC(=O)CCl)on1]",0,0,-16.303,-16.303
"O=C(CCl)Nc1cccc(Cl)c1 [PCM-0102198, O=C(CCl)Nc1cccc(Cl)c1]",37,28,-16.004,-16.004
"O=C(CCl)N1CCN(S(=O)(=O)c2c(F)cccc2F)CC1 [PCM-0102201, O=C(CCl)N1CCN(S(=O)(=O)c2c(F)cccc2F)CC1]",0,0,-15.250,-15.250
